# Experimental data taken from patent US20250243180A1, “TARGETED PROTEIN DEGRADATION” (Monte Rosa Therapeutics AG, priority 2023, published 2025).
# Like-named read-outs stand apart in the source and are kept apart here.
# How the values were obtained:
# NEK7 = NEK7 (Homo sapiens (Human), UniProt Q8TDX7+Q96SW2); assay: NEK7 NanoBiT degradation assay in Cal51 NEK7 NanoBiT cell line; type: cell-based; settings: Cal51 NEK7 NanoBiT cells, 24 hours; for Dmax: CAL-51
# In short: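 Cal51 cells with CRISPR knock-in HiBiT-tagged endogenous NEK7 plus stable LgBiT, in live-cell Endurazine medium, seeded 16 h before dosing. Compounds at final 1 μM to 0.05 nM for 24 h at 37 °C, then luminescence read. Response normalized to plate controls and fitted with a 4-parameter logistic giving EC50.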
# CRBN-DDB1 = CRBN-DDB1 (Homo sapiens (Human), UniProt Q96SW2); assay: Compound binding to CRBN by HTRF assay
# Chain of CRBN-DDB1 (Q96SW2 whole entry): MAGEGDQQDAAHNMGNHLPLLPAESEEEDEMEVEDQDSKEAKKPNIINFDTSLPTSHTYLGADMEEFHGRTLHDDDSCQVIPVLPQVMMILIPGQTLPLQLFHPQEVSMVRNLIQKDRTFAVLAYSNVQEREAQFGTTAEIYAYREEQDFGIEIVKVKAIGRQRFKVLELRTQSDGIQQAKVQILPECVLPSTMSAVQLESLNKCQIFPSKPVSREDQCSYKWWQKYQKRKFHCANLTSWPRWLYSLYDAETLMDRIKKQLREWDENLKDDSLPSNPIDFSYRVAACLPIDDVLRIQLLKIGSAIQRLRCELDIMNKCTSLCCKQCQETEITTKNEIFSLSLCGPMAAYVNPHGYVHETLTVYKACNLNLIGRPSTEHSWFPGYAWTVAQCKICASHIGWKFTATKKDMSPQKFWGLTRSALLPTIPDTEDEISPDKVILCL
# Chain of CRBN-DDB1 (Q16531 whole entry partner): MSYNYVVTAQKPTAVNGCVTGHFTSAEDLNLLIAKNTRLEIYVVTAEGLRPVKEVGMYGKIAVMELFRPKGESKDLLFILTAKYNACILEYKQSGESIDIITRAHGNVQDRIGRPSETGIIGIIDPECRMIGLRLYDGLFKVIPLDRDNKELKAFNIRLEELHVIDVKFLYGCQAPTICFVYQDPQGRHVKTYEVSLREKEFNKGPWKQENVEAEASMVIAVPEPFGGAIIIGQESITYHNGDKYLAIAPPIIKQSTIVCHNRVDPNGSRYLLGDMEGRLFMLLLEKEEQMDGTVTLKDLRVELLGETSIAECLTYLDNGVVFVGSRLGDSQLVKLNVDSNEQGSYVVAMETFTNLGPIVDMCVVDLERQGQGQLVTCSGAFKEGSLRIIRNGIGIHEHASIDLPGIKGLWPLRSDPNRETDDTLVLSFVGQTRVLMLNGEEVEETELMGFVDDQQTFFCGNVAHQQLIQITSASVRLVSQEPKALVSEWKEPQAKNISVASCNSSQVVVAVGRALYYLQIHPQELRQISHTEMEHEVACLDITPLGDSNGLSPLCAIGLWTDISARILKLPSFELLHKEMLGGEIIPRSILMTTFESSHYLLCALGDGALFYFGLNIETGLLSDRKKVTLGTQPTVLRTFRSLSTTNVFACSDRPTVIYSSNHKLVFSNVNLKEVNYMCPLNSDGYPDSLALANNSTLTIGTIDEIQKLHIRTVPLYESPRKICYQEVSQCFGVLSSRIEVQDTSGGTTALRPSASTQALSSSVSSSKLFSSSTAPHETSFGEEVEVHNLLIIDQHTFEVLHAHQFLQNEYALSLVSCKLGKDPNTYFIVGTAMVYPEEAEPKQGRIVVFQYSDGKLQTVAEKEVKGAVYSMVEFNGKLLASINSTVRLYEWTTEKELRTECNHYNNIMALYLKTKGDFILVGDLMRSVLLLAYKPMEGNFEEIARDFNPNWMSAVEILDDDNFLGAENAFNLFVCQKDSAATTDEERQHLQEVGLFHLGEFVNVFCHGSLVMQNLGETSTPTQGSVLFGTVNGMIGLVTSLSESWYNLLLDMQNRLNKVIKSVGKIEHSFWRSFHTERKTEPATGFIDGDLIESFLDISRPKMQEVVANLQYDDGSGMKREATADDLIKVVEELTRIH
# In short: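 HTRF displacement of Cy5-thalidomide probe (100 nM) from His-tagged CRBN-DDB1 (2.5 nM) with anti-His terbium cryptate, in HEPES/NaCl/TCEP/EDTA/Tween20 buffer; 11-point 1:3 dilution series, 30 min at ambient temperature. Signal (665/620 nm) normalized to lenalidomide and DMSO controls; EC50 fitted, Ki by Cheng-Prusoff from geometric mean EC50.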
# [1] = NEK7 degradation, read-out: NanoBiT Dmax
# [2] = NEK7 degradation, read-out: NanoBiT DC50
# Chain of NEK7 (Q8TDX7 whole entry): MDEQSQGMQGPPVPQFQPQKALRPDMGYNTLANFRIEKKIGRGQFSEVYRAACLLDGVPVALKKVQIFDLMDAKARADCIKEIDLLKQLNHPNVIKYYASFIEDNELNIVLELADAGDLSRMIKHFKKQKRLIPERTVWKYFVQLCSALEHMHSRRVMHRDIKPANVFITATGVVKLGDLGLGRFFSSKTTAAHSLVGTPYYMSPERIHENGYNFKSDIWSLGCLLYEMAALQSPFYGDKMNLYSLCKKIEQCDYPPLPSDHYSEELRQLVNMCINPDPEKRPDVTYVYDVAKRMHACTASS
# Chain of NEK7 (Q96SW2 whole entry): as the sequence (Q96SW2 whole entry) above
# Chain of NEK7 (Q16531 2-1140 partner): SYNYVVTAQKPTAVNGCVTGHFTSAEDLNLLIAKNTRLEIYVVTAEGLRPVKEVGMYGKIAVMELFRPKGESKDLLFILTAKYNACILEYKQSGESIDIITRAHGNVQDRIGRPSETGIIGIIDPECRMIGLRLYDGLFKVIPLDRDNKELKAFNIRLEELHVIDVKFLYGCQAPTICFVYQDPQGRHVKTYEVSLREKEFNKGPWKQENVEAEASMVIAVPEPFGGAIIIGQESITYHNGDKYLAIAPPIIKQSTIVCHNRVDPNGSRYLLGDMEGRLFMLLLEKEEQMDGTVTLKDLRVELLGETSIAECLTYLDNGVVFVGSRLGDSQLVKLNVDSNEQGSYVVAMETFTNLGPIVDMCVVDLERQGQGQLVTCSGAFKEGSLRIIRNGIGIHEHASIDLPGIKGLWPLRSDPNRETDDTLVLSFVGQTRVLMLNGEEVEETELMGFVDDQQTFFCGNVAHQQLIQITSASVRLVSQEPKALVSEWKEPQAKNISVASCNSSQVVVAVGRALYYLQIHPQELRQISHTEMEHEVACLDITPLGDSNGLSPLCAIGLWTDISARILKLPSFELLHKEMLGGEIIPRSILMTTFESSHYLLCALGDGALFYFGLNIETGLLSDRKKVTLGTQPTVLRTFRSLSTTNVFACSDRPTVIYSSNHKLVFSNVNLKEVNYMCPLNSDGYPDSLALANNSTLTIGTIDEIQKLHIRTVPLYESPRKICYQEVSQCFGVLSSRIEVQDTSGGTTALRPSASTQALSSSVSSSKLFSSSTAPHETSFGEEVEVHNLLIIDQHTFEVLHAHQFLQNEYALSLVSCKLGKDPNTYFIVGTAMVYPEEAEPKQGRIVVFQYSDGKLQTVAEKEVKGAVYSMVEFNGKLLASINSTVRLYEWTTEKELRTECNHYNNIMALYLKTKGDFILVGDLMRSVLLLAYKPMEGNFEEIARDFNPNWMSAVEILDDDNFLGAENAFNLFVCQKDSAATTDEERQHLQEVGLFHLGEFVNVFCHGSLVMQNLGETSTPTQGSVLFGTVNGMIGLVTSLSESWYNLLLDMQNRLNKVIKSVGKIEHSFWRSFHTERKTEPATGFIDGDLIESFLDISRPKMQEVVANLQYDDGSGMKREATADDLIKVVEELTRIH
SMILES,Dmax (NEK7; read-out: NEK7 NanoBiT Dmax) [%],Dmax (NEK7; [1]) [%],DC50 (NEK7; read-out: NEK7 NanoBiT DC50) [nM],DC50 (NEK7; [2]) [nM],EC50 (CRBN-DDB1) [nM],"EC50 (CRBN-DDB1; HTRF class, Cereblon binding) [nM]"
CC(C)(C(=O)NCc1cc(Cl)c(C2CCC(=O)NC2=O)c(Cl)c1)c1ccn(CC(F)(F)F)c(=O)c1 (stereo not drawn) [Compound 23],88,> 75,22,≤ 100,220,100 to 1000
CC(C)(C(=O)NCc1cc(Cl)c(C2CCC(=O)NC2=O)c(Cl)c1)c1nocc1C(F)(F)F (stereo not drawn) [Compound 220],91,> 75,8,≤ 100,150,100 to 1000
"CC(C)(C(=O)NCc1ccc(C2CCC(=O)NC2=O)c(Cl)c1)c1cccc(F)c1 (stereo not drawn) [Compound 25, N-(3-chloro-4-(2,6-dioxopiperidin-3-yl)benzyl)-2-(3-fluorophenyl)-2-methylpropanamide]",87,> 75,23,≤ 100,290,100 to 1000
COc1cnc(C(C)(C)C(=O)NCc2cc(Cl)c(C3CCC(=O)NC3=O)c(Cl)c2)cn1 (stereo not drawn) [Compound 209],97,> 75,1,≤ 100,90,≤ 100
CC(C)(C(=O)NCc1cc(Cl)c(C2CCC(=O)NC2=O)c(Cl)c1)c1ccc(NS(C)(=O)=O)cc1 (stereo not drawn) [Compound 50],88,> 75,18,≤ 100,150,100 to 1000
"CC(C)(C(=O)NCc1cc(Cl)c(C2CCC(=O)NC2=O)c(Cl)c1)c1cn(C(C)(F)F)c(=O)cn1 (stereo not drawn) [Compound 266, N-(3,5-dichloro-4-(2,6-dioxopiperidin-3-yl)benzyl)-2-(4-(1,1-difluoroethyl)-5-oxo-4,5-dihydropyrazin-2-yl)-2-methylpropanamide]",82,> 75,15,≤ 100,120,100 to 1000
CC(C)(C(=O)NCc1cc(Cl)c(C2CCC(=O)NC2=O)c(Cl)c1)c1cccc2ocnc12 (stereo not drawn) [Compound 171],90,> 75,7,≤ 100,120,100 to 1000
CC(C)(C(=O)NCc1cc(Cl)c(C2CCC(=O)NC2=O)c(Cl)c1)c1ncc(Cl)cn1 (stereo not drawn) [Compound 194],96,> 75,1,≤ 100,120,100 to 1000
CC(C)(C(=O)NCc1cc(Cl)c(C2CCC(=O)NC2=O)c(Cl)c1)c1nc2ccccc2o1 (stereo not drawn) [Compound 167],96,> 75,1,≤ 100,90,≤ 100
"O=C1CCC(c2c(Cl)cc(CNC(=O)C3(c4ccnc(F)c4)CC(F)(F)C3)cc2Cl)C(=O)N1 (stereo not drawn) [Compound 136, N-(3,5-dichloro-4-(2,6-dioxopiperidin-3-yl)benzyl)-3,3-difluoro-1-(2-fluoropyridin-4-yl)cyclobutane-1-carboxamide]",65,50 to 75,63,≤ 100,60,≤ 100
CC(C)(C(=O)NCc1cc(Cl)c(C2CCC(=O)NC2=O)c(Cl)c1)c1cc[nH]c(=O)c1 (stereo not drawn) [Compound 84],93,> 75,22,≤ 100,180,100 to 1000
"CC(C)(C(=O)NCc1cc(Cl)c(C2CCC(=O)NC2=O)c(C#N)c1)c1ccccc1 (stereo not drawn) [Compound 242, N-(3-chloro-5-cyano-4-(2,6-dioxopiperidin-3-yl)benzyl)-2-methyl-2-phenylpropanamide]",59,50 to 75,319,100 to 1000,430,100 to 1000
CC(C)(C(=O)NCc1cc(Cl)c(C2CCC(=O)NC2=O)c(Cl)c1)c1ncco1 (stereo not drawn) [Compound 124],73,50 to 75,78,≤ 100,140,100 to 1000
Cc1ocnc1C(C)(C)C(=O)NCc1cc(Cl)c(C2CCC(=O)NC2=O)c(Cl)c1 (stereo not drawn) [Compound 236],71,50 to 75,41,≤ 100,250,100 to 1000
CC(C)(C(=O)NCc1cc(Cl)c(C2CCC(=O)NC2=O)c(Cl)c1)c1c(F)cncc1F (stereo not drawn) [Compound 68],97,> 75,1,≤ 100,90,≤ 100
CC(C)(C(=O)NCc1cc(Cl)c(C2CCC(=O)NC2=O)c(Cl)c1)c1cc2cccnc2cn1 (stereo not drawn) [Compound 190],90,> 75,6,≤ 100,90,≤ 100
"O=C1CC(C(=O)NCc2cc(Cl)c(C3CCC(=O)NC3=O)c(Cl)c2)(c2ccc(F)cc2)C1 (stereo not drawn) [Compound 137, N-(3,5-dichloro-4-(2,6-dioxopiperidin-3-yl)benzyl)-1-(4-fluorophenyl)-3-oxocyclobutane-1-carboxamide]",97,> 75,1,≤ 100,50,≤ 100
CC(C)(C(=O)NCc1cc(Cl)c(C2CCC(=O)NC2=O)c(Cl)c1)c1ccccn1 (stereo not drawn) [Compound 20],86,> 75,13,≤ 100,70,≤ 100
CC(C)(C(=O)NCc1cc(F)c(C2CCC(=O)NC2=O)c(Cl)c1)c1ccc(OC(F)F)nn1 (stereo not drawn) [Compound 276],79,> 75,33,≤ 100,190,100 to 1000
CC(C)(C(=O)NCc1ccc(C2CCC(=O)NC2=O)c(Cl)c1)c1ccc(C#N)cc1 (stereo not drawn) [Compound 28],91,> 75,17,≤ 100,470,100 to 1000
CC(C)(C(=O)NCc1cc(Cl)c(C2CCC(=O)NC2=O)c(Cl)c1)c1ncoc1C(F)(F)F (stereo not drawn) [Compound 199],67,50 to 75,99,≤ 100,140,100 to 1000
CCn1ccc(C(C)(C)C(=O)NCc2cc(Cl)c(C3CCC(=O)NC3=O)c(Cl)c2)cc1=O (stereo not drawn) [Compound 45],91,> 75,13,≤ 100,530,100 to 1000
COc1ccc(C(C)(C)C(=O)NCc2cc(F)c(C3CCC(=O)NC3=O)c(Cl)c2)nc1 (stereo not drawn) [Compound 261],87,> 75,12,≤ 100,90,≤ 100
Cc1ccc(C(C)(C)C(=O)NCc2cc(F)c(C3CCC(=O)NC3=O)c(Cl)c2)nn1 (stereo not drawn) [Compound 275],61,50 to 75,190,100 to 1000,210,100 to 1000
